Laboratory results reported in patent US20220265629A1, “TREATMENT OF SYSTOLIC DYSFUNCTION AND HEART FAILURE WITH REDUCED EJECTION FRACTION WITH THE COMPOUND (R)-4-(1-((3-(DIFLUOROMETHYL)-1-METHYL-1H-PYRAZOL-4-YL)SULFONYL)-1-FLUOROETHYL)-N-(ISOXAZOL-3-YL)PIPERIDINE-1-CARBOXAMIDE” (MyoKardia, Inc., priority 2019, published 2022).
Where two headings read alike, the source gives them in different places.

Key:
[1] = Unbound (free) fraction in plasma; type: in vitro ADME
healthy subjects = test: Single ascending oral dose study in healthy volunteers: transthoracic echocardiography (TTE) pharmacodynamics; type: in vivo, human
Method: To assess pharmacodynamic effects, serial echocardiograms were performed. The sonographers used in the study completed Echo protocol training and submitted an example of a study for evaluation to the core laboratory for evaluation. The core TTE lab certified that the sonographer was able to perform the TTEs at a level satisfactory for obtaining the required protocol data.
These criteria were chosen to prevent subjects from having prolongation of SET that might lead to myocardial ischemia. Dose escalation stopping criteria also included observation of a Baseline-corrected, group mean relative increase of >20% in any 2 sequential TTE assessments in at least 2 measures of LV contractility: LVOT-VTI, LVFS, LVEF, or LVSV in subjects receiving Compound I. Placebo-controlled evaluation may have been considered. For this comparison, subjects who received placebo may have been pooled across cohorts.
SET as determined by TTE was assessed using summary statistics. Observations and change from Baseline were summarized by treatment at each time point and the maximum change from Baseline determined for each subject. In addition, categorical analyses were performed on the number of subjects with a change from Baseline>50 msec and the number of subjects with a change from Baseline>75 msec in 1 or any 2 sequential TTE assessments. The relationship to Compound I plasma concentration to SET was explored. An analysis of SET placebo-adjusted change from Baseline was also performed.
As the Cmax occurred at between 4 and 6 hours in most of the subjects, the TTE obtained at 6 hours postclose was considered the best timepoint to explore the relationship between concentration and pharmacological effect. TTEs obtained at 1.5 and 3 hours after dosing were before the Cmax and at 9 hours were after the peak Cmax. Based on the preclinical data, it was considered unlikely that there would be a prolonged lag between the Cmax and peak pharmacological effect. As the exposure after the administration of the 350 mg and 525 mg doses were very similar, it was decided to not only present the results from these groups separately, but also to combine the data from these groups. By combining the data from the 2 groups, the number of subjects closed was increased from 6 to 12, thus increasing the power to observe a statistically significant change from Baseline in the TTE parameters of interest.
An analysis of placebo-corrected change from Baseline at 6 hours postclose by Compound I plasma concentration bins is presented in Table 6 below.

[2] = 350 mg and 525 mg combined, 6 hours postdose
[3] = 350 mg and 525 mg combined, 12 hours postdose
[4] = 6 hours post-dose, plasma 0-1000 ng/mL
[5] = 6 hours post-dose, plasma 1001-2000 ng/mL

In the case of `Cn1cc(S(=O)(=O)[C@@](C)(F)C2CCN(C(=O)Nc3ccon3)CC2)c(C(F)F)n1` [Compound I, (R)-4-(1-((3-(difluoromethyl)-1-methyl-1H-pyrazol-4-yl)sulfonyl)-1-fluoroethyl)-N-(isoxazol-3-yl)piperidine-1-carboxamide], the fraction unbound ([1]; dog, Dog plasma, read-out: fup (Dog), unbound fraction in plasma) is reported as 0.416, the fraction unbound ([1]; human, Human plasma, 0.1 to 10 μM, read-out: fup (Human), unbound fraction in plasma) is reported as 0.144 to 0.164 and the fraction unbound ([1]; human, read-out: fu, free fraction of Compound I in plasma) is reported as 0.14 to 0.18. For the same compound, the “LVEDD, highest observed change from Baseline” value (healthy subjects; 50 mg, 24 hours postdose) was 0.103 (0.217) cm, the “LVEF, maximum mean (SD) increase” value (healthy subjects; 100 mg, 12 hours postdose) was 4.83 (2.65) % and the “SET, observed mean (SD) increase” value (healthy subjects; 350 mg and 525 mg combined, 1.5 to 2 hours postdose) was 18.0 (19.5) msec. The “LVEDV, mean (SD) decrease” value (healthy subjects; [2]) was −9.98 (7.83) mL, the “LVESV, mean (SD) decrease” value (healthy subjects; [2]) was −6.82 (5.99) mL and the “LVOT-VTI, mean (SD) increase” value (healthy subjects; [2]) was 2.28 (1.43) cm. For the same compound, the “LVEDD, mean (SD) decrease” value (healthy subjects; [3]) was −0.171 (0.177) cm, the “LVSV, mean (SD) increase” value (healthy subjects; [3]) was 7.623 (7.842) mL and the “SET, largest observed mean (SD) increase” value (healthy subjects; 350 mg, 1.5 to 2 hours postdose) was 19.2 (20.5) msec. The “LVOT-VTI, maximum change from Baseline” value (healthy subjects; 350 mg, 6 hours postdose) was 2.54 (1.78) cm, the “LVSV, maximum mean (SD) increase” value (healthy subjects; 350 mg, 12 hours postdose) was 10.848 (9.893) mL and the “LVEDV, largest mean (SD) decrease” value (healthy subjects; 525 mg, 6 hours postdose) was −12.5 (6.96) mL. The “LVEF, maximum mean (SD) increase” value (healthy subjects; 525 mg, 6 hours postdose) was 4.65 (1.45) %, the “LVESV, largest mean (SD) decrease” value (healthy subjects; 525 mg, 6 hours postdose) was −9.21 (3.18) mL and the “LVEDD, largest observed mean (SD) decrease” value (healthy subjects; 525 mg, 12 hours postdose) was −0.213 (0.221) cm. For the same compound, the “LVESD, largest observed mean (SD) decrease” value (healthy subjects; 525 mg, 12 hours postdose) was −0.455 (0.357) cm, the “DBP placebo-corrected change from Baseline (LS mean difference)” value (healthy subjects; [4]) was 2.277 mm Hg and the “E/A ratio placebo-corrected change from Baseline (LS mean difference)” value (healthy subjects; [4]) was 0.150. For the same compound, the “E/e′(lateral) placebo-corrected change from Baseline (LS mean difference)” value (healthy subjects; [4]) was −0.235, the “HR placebo-corrected change from Baseline (LS mean difference)” value (healthy subjects; [4]) was −1.070 bpm and the “IVCT placebo-corrected change from Baseline (LS mean difference)” value (healthy subjects; [4]) was 0.677 ms. The “IVRT placebo-corrected change from Baseline (LS mean difference)” value (healthy subjects; [4]) was 1.526 ms, the “LVEDD placebo-corrected change from Baseline (LS mean difference)” value (healthy subjects; [4]) was −0.014 cm and the “LVEDV placebo-corrected change from Baseline (LS mean difference)” value (healthy subjects; [4]) was -2.210 mL. The “LVEF placebo-corrected change from Baseline (LS mean difference)” value (healthy subjects; [4]) was 0.322%, the “LVESD placebo-corrected change from Baseline (LS mean difference)” value (healthy subjects; [4]) was 0.025 cm and the “LVESV placebo-corrected change from Baseline (LS mean difference)” value (healthy subjects; [4]) was -1.204 mL. For the same compound, the “LVFS placebo-corrected change from Baseline (LS mean difference)” value (healthy subjects; [4]) was −0.560%, the “LVGCS placebo-corrected change from Baseline (LS mean difference)” value (healthy subjects; [4]) was −1.076% and the “LVGLS placebo-corrected change from Baseline (LS mean difference)” value (healthy subjects; [4]) was −0.467%. For the same compound, the “MPI placebo-corrected change from Baseline (LS mean difference)” value (healthy subjects; [4]) was −0.007, the “PEP placebo-corrected change from Baseline (LS mean difference)” value (healthy subjects; [4]) was -2.190 ms and the Peak A placebo-corrected change from Baseline (LS mean difference) (healthy subjects; [4]) was -3.09 cm/s. The Peak E placebo-corrected change from Baseline (LS mean difference) (healthy subjects; [4]) was -9.66e+06 nm/s, the “SBP placebo-corrected change from Baseline (LS mean difference)” value (healthy subjects; [4]) was −0.623 mm Hg and the “SET placebo-corrected change from Baseline (LS mean difference)” value (healthy subjects; [4]) was 10.623 ms. For the same compound, the “Stroke Volume placebo-corrected change from Baseline (LS mean difference)” value (healthy subjects; [4]) was 2.631 mL, the “DBP placebo-corrected change from Baseline (LS mean difference)” value (healthy subjects; [5]) was 2.937 mm Hg and the “E/A ratio placebo-corrected change from Baseline (LS mean difference)” value (healthy subjects; [5]) was 0.177. For the same compound, the “E/e′(lateral) placebo-corrected change from Baseline (LS mean difference)” value (healthy subjects; [5]) was 0.144, the “HR placebo-corrected change from Baseline (LS mean difference)” value (healthy subjects; [5]) was 0.336 bpm and the “IVCT placebo-corrected change from Baseline (LS mean difference)” value (healthy subjects; [5]) was 1.412 ms. The “IVRT placebo-corrected change from Baseline (LS mean difference)” value (healthy subjects; [5]) was 0.148 ms, the “LVEDD placebo-corrected change from Baseline (LS mean difference)” value (healthy subjects; [5]) was −0.041 cm and the “LVEDV placebo-corrected change from Baseline (LS mean difference)” value (healthy subjects; [5]) was -6.100 mL. For the same compound, the “LVEF placebo-corrected change from Baseline (LS mean difference)” value (healthy subjects; [5]) was 2.176%, the “LVESD placebo-corrected change from Baseline (LS mean difference)” value (healthy subjects; [5]) was −0.159 cm and the “LVESV placebo-corrected change from Baseline (LS mean difference)” value (healthy subjects; [5]) was -4.101 mL.
